In US5814512A, “Microorganism having all the identifying characteristics of absida ferm BP-4599 for producing purpurogallin derivatives” (Hoffmann-La Roche Inc., priority 1994, dated 1998):

Experiments:
[1] = target: T1, catecholamine-O-methyltransferase (COMT), human liver enzyme (Homo sapiens, UniProt P21964); test: COMT inhibitory activity (O-methylation of 1,2-dihydroxybenzene with S-adenosyl-L-[methyl-3H]methionine, crude human liver enzyme); format: biochemical; conditions: COMT inhibition; crude enzyme from human liver (8.3 μg protein); pH 8.0; 37° C., 30 minutes; 100 μM 1,2-dihydroxybenzene
T1 construct: prepared from human liver; from tissue; host or cells: human liver, crude enzyme
T1 sequence (P21964 1-221 isoform P21964-2): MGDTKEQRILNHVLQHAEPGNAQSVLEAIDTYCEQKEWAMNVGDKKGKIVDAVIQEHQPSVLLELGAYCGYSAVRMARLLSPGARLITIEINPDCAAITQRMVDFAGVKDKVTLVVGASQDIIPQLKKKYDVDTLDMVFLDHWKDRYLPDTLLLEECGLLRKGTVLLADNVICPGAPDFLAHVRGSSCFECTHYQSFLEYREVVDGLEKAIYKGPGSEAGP
Method: The assay mixture (120 μl) in a mini scintillation vial contained 68 mM K-PO4 buffer (pH 8.0), 10 mM MgCl2, 2.2 mM dithiothreitol, 7.8 U/ml adenosine deaminase, 5 mM EGTA, 100 μM 1,2-dihydroxybenzene, 183 μM S-adenosyl-L-[methyl-^3 H] […] Ci/mol, Amersham) and human liver enzyme. In the standard assay, 5 μl of inhibitor was added to the incubation mixture and the reaction was started with the supplementation of crude enzyme (8.3 μg protein) prepared from human liver. After incubation at 37° C. for 30 minutes, the reaction was stopped by immersion of the vials in ice water. 100 μl of 1M guaiacol HCl was added and the samples were extracted with 2 ml of a scintillation cocktail of hexane/toluene (4:1). The radioactivity of O^3 H-methylated products were measured by a liquid scintillation counter (LSC1100, Aloka).

[2] = Solubility; format: physicochemical
[3] = Acute toxicity; conditions: in vivo

| Structure (SMILES) | IC50 [1] [nM] | Solubility ([2]; in Dimethylsulfoxide (DMSO)) | Solubility ([2]; in H2 O) | Solubility ([2]; in Methanol) | Acute toxicity [3] |
| --- | --- | --- | --- | --- | --- |
| COc1c(O)cc2cc(C(=O)O)cc(O)c(=O)c2c1O [8-O-methylpurpurogallincarboxylic acid] | 2230 | Soluble | Slightly soluble | Soluble | not observed |
| CCCOC(=O)c1cc(O)c(O)c(O)c1 [Propyl gallate] | 455 |  |  |  |  |
| O=c1cccccc1O [Tropolone] | 963000 |  |  |  |  |
